The target in assay [1] is T1, human TLR3 (Homo sapiens, UniProt O15455).
T1 construct: host or cells: HEK293
T1 sequence (O15455 24-904): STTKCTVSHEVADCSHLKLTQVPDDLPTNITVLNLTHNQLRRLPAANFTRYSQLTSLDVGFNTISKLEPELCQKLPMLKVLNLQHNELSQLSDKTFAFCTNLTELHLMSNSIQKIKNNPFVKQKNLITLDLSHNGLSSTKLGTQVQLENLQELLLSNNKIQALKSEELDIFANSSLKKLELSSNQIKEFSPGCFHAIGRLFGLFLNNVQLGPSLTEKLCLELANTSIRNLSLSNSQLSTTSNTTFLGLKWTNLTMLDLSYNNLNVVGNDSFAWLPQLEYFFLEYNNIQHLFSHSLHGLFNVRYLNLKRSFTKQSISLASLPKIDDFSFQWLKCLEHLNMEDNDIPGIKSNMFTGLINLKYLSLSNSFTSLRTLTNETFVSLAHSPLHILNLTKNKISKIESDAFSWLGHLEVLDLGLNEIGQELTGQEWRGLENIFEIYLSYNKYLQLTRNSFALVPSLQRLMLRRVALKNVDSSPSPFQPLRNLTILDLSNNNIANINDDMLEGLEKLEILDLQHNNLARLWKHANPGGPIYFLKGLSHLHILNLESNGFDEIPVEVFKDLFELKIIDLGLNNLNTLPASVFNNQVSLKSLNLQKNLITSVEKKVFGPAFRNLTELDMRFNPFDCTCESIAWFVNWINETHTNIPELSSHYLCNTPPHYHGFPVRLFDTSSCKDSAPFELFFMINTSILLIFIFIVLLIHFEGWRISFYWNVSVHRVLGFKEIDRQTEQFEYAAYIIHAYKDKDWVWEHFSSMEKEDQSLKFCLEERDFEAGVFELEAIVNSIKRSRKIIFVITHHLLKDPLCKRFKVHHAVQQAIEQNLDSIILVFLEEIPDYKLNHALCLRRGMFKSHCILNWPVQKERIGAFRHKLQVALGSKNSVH
As to the kind of experiment: HEK293 SEAP reporter assay, other TLRs (Biological Example 3). The class given is cell-based. To be noted: 16 hrs, up to 1 μM. From the text:
(§1) In this example, the activity of the Compound 1 to stimulate different human and mouse TLR pathways was investigated on HEK293 cells transfected with inducible SEAP (secreted embryonic alkaline phosphatase) reporter genes and also expressing different human TLRs (TLR2, TLR3, TLR4, TLR5, TLR7, TLR8, TLRS) or mouse TLRs (TLR2, TLR3, TLR4, TLR5, TLR7, TLR8, TLR13). Compound A
(§2) HEK293 reporter cell lines were purchased from Invivogen and cell lines were maintained in manufacture recommended culture medium with required supplemental antibiotics. On the day of assay, the cells were harvested with Accutase and counted by the Vi-CELL Cell Viability Analyzers. Cells were re-suspended in HEK blue detection medium and a total of 10000 cells were seeded in each well of a 384-well flat bottom plate. […] Assay plates were cultured at 37° C. in a CO2 incubator for 16 hrs. HEK-Blue™ Detection medium changes to a purple/blue color in the presence of secreted SEAP, which can be detected by spectrophotometry at 620-655 nm. Data was fitted with non-linear regression analysis, using a log(inhibitor) vs. response-variable slope, 3-parameter fit with GraphPad Prism.

In assay [2] the target is T2, mouse TLR8 (Mus musculus, UniProt P58682).
T2 construct: host or cells: HEK293
T2 sequence (P58682 24-1032): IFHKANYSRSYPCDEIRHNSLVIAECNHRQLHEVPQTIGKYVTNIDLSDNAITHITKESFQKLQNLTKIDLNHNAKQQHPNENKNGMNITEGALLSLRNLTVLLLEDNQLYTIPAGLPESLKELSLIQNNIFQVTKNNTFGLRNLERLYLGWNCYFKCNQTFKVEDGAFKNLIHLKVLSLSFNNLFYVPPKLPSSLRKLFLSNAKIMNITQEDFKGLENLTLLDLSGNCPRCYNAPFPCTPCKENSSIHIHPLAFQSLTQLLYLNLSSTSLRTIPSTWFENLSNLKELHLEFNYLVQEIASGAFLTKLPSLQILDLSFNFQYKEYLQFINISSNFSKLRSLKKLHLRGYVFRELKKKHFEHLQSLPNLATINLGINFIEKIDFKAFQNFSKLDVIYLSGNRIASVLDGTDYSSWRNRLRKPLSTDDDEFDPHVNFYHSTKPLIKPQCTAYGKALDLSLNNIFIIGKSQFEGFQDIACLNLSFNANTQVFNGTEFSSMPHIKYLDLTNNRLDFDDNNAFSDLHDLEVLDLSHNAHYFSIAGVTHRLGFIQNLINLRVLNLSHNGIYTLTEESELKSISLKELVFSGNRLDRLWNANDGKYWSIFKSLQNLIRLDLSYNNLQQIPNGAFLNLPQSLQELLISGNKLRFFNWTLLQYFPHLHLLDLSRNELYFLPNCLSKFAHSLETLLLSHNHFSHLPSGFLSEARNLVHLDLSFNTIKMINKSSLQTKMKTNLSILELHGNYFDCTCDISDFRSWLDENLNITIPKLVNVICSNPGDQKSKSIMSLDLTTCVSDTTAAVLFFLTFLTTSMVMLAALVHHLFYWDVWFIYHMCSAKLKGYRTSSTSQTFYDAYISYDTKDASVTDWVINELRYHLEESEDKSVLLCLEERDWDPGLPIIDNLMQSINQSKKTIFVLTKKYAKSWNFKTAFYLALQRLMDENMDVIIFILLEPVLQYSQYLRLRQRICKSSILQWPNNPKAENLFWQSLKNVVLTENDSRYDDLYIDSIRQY
The assay is described as above. The class given is cell-based. To be noted: 16 hrs, up to 1 μM.
Description: as §1, §2

The record followed here is US20220259202A1, “1-(4-(AMINOMETHYL)BENZYL)-2-BUTYL-2H-PYRAZOLO[3,4-C]QUINOLIN-4-AMINE DERIVATIVES AND RELATED COMPOUNDS AS TOLL-LIKE RECEPTOR (TLR) 7/8 AGONISTS, AS WELL AS ANTIBODY DRUG CONJUGATES THEREOF FOR USE IN CANCER THERAPY AND DIAGNOSIS” (SUTRO BIOPHARMA, INC., priority 2019, published 2022).

A word on the EC50: it is the concentration giving half of the maximal effect. A low value points to higher potency in that assay. With `CCCCn1nc2c(N)nc3ccccc3c2c1Cc1ccc(CN)cc1` [Compound 1, 1-(4-(aminomethyl)benzyl)-2-butyl-2H-pyrazolo[3,4-c]quinolin-4-amine], the EC50 in assay [1] and in assay [2] was greater than 1000 nM each time.

For the molecule `CCCCc1nc2c(N)nc3ccccc3c2n1Cc1ccc(CN)cc1` [Compound A, reference compound], the EC50 in assay [1] and in assay [2] was greater than 1000 nM each time.
